Values belong to the molecule of their own block, whether it stands above or below them.
How the values were obtained:
[1] = Stability in mouse liver microsomes assessed as parent compound remaining at 0.5 uM after 10 mins by high throughput assay; assay type: ADME, microsome; conditions: read-out: Stability
[2] = Drug uptake in Balb/c mouse KLH model at 3 mg/kg, po after 7 hrs; assay type: ADME, organism-based; conditions: in vivo, read-out: Drug uptake
[3] = Drug uptake in Balb/c mouse KLH model at 3 mg/kg, po after 24 hrs; assay type: ADME, organism-based; conditions: in vivo, read-out: Drug uptake
[4] = Drug uptake in KLH Balb/c mouse model at 0.6 mg/kg, po after 7 hrs; assay type: ADME, organism-based; conditions: in vivo, read-out: Drug uptake
[5] = Drug uptake in Balb/c mouse KLH model at 15 mg/kg, po after 24 hrs; assay type: ADME, organism-based; conditions: in vivo, read-out: Drug uptake
[6] = Drug uptake in Balb/c mouse KLH model at 0.6 mg/kg, po after 24 hrs; assay type: ADME, organism-based; conditions: in vivo, read-out: Drug uptake
[7] = Drug uptake in Balb/c mouse KLH model at 15 mg/kg, po after 7 hrs; assay type: ADME, organism-based; conditions: in vivo, read-out: Drug uptake
[8] = AUC in BALB/c mouse up to 300 mg/kg, qd measured on day 4; assay type: ADME, organism-based; conditions: in vivo
[9] = Cmax in BALB/c mouse up to 300 mg/kg, qd measured on day 4; assay type: ADME, organism-based; design: dose 300 mg/kg; conditions: in vivo

remaining at 10 min, 0.5 µM [1]: 48%
Compound: CC(=O)N1C[C@@H](C)N(c2cncc(-c3cc(-c4ccnn4C4CCOCC4)c4c(N)ncnn34)c2)[C@@H](C)C1

remaining at 10 min, 0.5 µM [1]: 14%
Compound: COc1cc(-c2cc(-c3ccnn3C3CCOCC3)c3c(N)ncnn23)cc(N2[C@H](C)CN(C(C)=O)C[C@@H]2C)c1

concentration at 7 h [2]: 0.0249 µM
concentration at 24 h [3]: < 0.0039 µM
concentration at 7 h [4]: < 0.0064 µM
concentration at 24 h [5]: < 0.007 µM
remaining at 10 min, 0.5 µM [1]: 54%
concentration at 24 h [6]: < 0.0056 µM
concentration at 7 h [7]: 0.0978 µM
AUC [8]: ≤ 520 µM·h
Cmax [9]: ≤ 55 µM
Compound: CC(=O)N1C[C@@H](C)N(c2cccc(-c3cc(-c4ccnn4C4CCOCC4)c4c(N)ncnn34)c2)[C@@H](C)C1

remaining at 10 min, 0.5 µM [1]: 35%
Compound: CC(=O)N1C[C@@H](C)N(c2cc(F)cc(-c3cc(-c4ccnn4C4CCOCC4)c4c(N)ncnn34)c2)[C@@H](C)C1
